Laboratory results reported in patent US6548687B1, “Chromium L-threonate, process for preparation of the same and their use” (priority 1998, dated 2003).
Where two headings read alike, the source gives them in different places.

Key:
[1] = for Stable Constant: coordination compound of L-threonic acid and chromic ion, deduced with computer simulation from titration curves; for pH: pH range of the coordination compound model, deduced with computer simulation
[2] = Precipitation of chromic hydroxide as a function of pH; format: physicochemical

Compound: O=C(O)[C@H](O)[C@@H](O)CO.[O]=[Cr](=[O])([OH])[OH] [Model A, chromate L-threonate]
- Stable Constant ([1]; listed as A): −4.42 ± 0.14
- pH ([1]; listed as A): ˜4.5

Compound: O=S(=O)([O-])[O-].O=S(=O)([O-])[O-].O=S(=O)([O-])[O-].[Cr+3].[Cr+3] [chromic sulphate]
- pH at which solution forms precipitate [2]: ~4

Compound: O=C(O)[C@H](O)[C@@H](O)CO.[O]=[Cr](=[O])([OH])[OH] [Model C, chromate L-threonate]
- Stable Constant ([1]; listed as C): −9.35 ± 0.26
- pH ([1]; listed as C): ˜6.0

Compound: O=C(O)[C@H](O)[C@@H](O)CO.[O]=[Cr](=[O])([OH])[OH] [Model B, chromate L-threonate]
- Stable Constant ([1]; listed as B): −0.74 ± 0.34
- pH ([1]; listed as B): 3.5-4.0

Compound: [Cl][Cr]([Cl])[Cl] [chromic chloride]
- pH at which solution forms precipitate [2]: ~4

Compound: O=C(O)[C@H](O)[C@@H](O)CO.[O]=[Cr](=[O])([OH])[OH] [chromate L-threonate]
- precipitate of chromic hydroxide ([2]; even in basic condition): no precipitate
- dissolution (in alcohol and ether): no dissolution
- dissolution (in water): dissolution in water
